From patent publication US8653096B2, “Chemokine receptor antagonists and methods of use thereof” (Millennium Pharmaceuticals, Inc., priority 2001, dated 2014)
Blank lines part the entries; values can stand above or below the molecule they belong to.

Molecular target: T1, RANTES/MIP-1α chemokine receptor (CCR1) in THP-1 cell membranes (Homo sapiens, UniProt P32246)
T1 construct: Membranes were prepared from THP-1 cells (ATCC #TIB202); host or cells: THP-1 cells (membrane preparation)
T1 sequence (P32246 1-355): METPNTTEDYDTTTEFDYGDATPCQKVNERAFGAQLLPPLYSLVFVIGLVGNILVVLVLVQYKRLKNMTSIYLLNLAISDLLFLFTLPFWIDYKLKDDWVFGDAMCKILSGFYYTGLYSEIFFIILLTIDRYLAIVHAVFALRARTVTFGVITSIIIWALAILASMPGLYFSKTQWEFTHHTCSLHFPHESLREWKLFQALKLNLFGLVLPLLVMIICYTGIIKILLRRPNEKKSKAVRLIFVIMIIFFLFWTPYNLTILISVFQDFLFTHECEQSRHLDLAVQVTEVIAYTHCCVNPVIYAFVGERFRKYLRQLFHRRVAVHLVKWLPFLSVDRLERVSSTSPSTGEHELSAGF
Experiment: Receptor binding assay: 125I-RANTES or 125I-MIP-1α binding to THP-1 cell membranes
Conditions: inhibitor concentration required for 50% inhibition of specific binding; 125I-RANTES or 125I-MIP-1α as ligand, THP-1 cell membranes; read-out: IC50

Molecule: CC(C)(O)c1ccc2c(c1)C(=CCCN1CCC(N(Cc3ccc(Cl)cc3)C(=O)NC3CCCCC3)C1)c1cccnc1CO2 (centres unmarked) [Example 568, 1-(4-Chloro-benzyl)-3-cyclohexyl-1-(1-{3-[7-(1-hydroxy-1-methyl-ethyl)-11H-10-oxa-1-aza-dibenzo[a,d]cyclohepten-5-ylidene]-propyl}-pyrrolidin-3-yl)-urea]
- IC50: < 1 µM

Molecule: CCNC(=O)N(Cc1ccc(Cl)cc1)C1CCN(CCC=C2c3cc(C(C)(C)O)ccc3OCc3ncccc32)C1 (centres unmarked) [Example 569, 1-(4-Chloro-benzyl)-3-ethyl-1-(1-{3-[7-(1-hydroxy-1-methyl-ethyl)-11H-10-oxa-1-aza-dibenzo[a,d]cyclohepten-5-ylidene]-propyl}-pyrrolidin-3-yl)-urea]
- IC50: < 1 µM

Molecule: Methyl 1-[3-(5,11-dihydro-7-methoxy[1]benzoxepino[2,3-b]pyridin-5-ylidene)propyl]-4-phenylpiperidin-4-carboxylate [Example 188]
- IC50: > 10 µM

The next lines start with the values.

- IC50: < 10 µM
Molecule: CC(C)(C)CC(C)(C)NC(=O)N(Cc1ccc(Cl)cc1)C1CCN(CCC=C2c3cc(C(C)(C)O)ccc3OCc3ncccc32)C1 (centres unmarked) [Example 570, 1-(4-Chloro-benzyl)-1-(1-{3-[7-(1-hydroxy-1-methyl-ethyl)-11H-10-oxa-1-aza-dibenzo[a,d]cyclohepten-5-ylidene]-propyl}-pyrrolidin-3-yl)-3-(1,1,3,3-tetramethyl-butyl)-urea]

- IC50: < 10 µM
Molecule: CC(C)(O)c1ccc2c(c1)C(=CCCN1CCC(N(Cc3ccc(Cl)cc3)S(C)(=O)=O)C1)c1cccnc1CO2 (centres unmarked) [Example 571, N-(4-Chloro-benzyl)-N-(1-{3-[7-(1-hydroxy-1-methyl-ethyl)-11H-10-oxa-1-aza-dibenzo[a,d]cyclohepten-5-ylidene]-propyl}-pyrrolidin-3-yl)-methanesulfonamide]
